Values after ≈ are worked out from the molar mass of the structure shown. Active and inactive are the calls of the source. The rule behind the calls is not given here.
Assays:
Candida albicans = experiment: Antifungal activity against Candida albicans MTCC 227 incubated for overnight by broth micro dilution method; type: functional
Pseudomonas aeruginosa = experiment: Antimicrobial activity against Pseudomonas aeruginosa MTCC 1688 incubated for overnight by broth micro dilution method; type: functional
Aspergillus clavatus [1] = experiment: Antifungal activity against Aspergillus clavatus MTCC 1323 incubated for overnight by broth micro dilution method; type: functional
Escherichia coli = experiment: Antimicrobial activity against Escherichia coli MTCC 443 incubated for overnight by broth micro dilution method; type: functional
[2] = Cytotoxicity against Schizosaccharomyces pombe Var. Paul Linder 3360 assessed as cell viability at 10 ug/ml after 16 to 18 hrs by trypan blue staining-based compound microscopic analysis (reference value: 93.67 +/- 1.53%); conditions: Schizosaccharomyces pombe Var. Paul Linder 3360 cells, read-out: Activity
Streptococcus pyogenes = experiment: Antimicrobial activity against Streptococcus pyogenes MTCC 442 incubated for overnight by broth micro dilution method; type: functional
[3] = Cytotoxicity against Schizosaccharomyces pombe Var. Paul Linder 3360 assessed as cell viability at 2 ug/ml after 16 to 18 hrs by trypan blue staining-based compound microscopic analysis (reference value: 93.67 +/- 1.53%); conditions: Schizosaccharomyces pombe Var. Paul Linder 3360 cells, read-out: Activity
[4] = Cytotoxicity against Schizosaccharomyces pombe Var. Paul Linder 3360 assessed as cell viability at 4 ug/ml after 16 to 18 hrs by trypan blue staining-based compound microscopic analysis (reference value: 93.67 +/- 1.53%); conditions: Schizosaccharomyces pombe Var. Paul Linder 3360 cells, read-out: Activity
[5] = Cytotoxicity against Schizosaccharomyces pombe Var. Paul Linder 3360 assessed as cell viability at 8 ug/ml after 16 to 18 hrs by trypan blue staining-based compound microscopic analysis (reference value: 93.67 +/- 1.53%); conditions: Schizosaccharomyces pombe Var. Paul Linder 3360 cells, read-out: Activity
Staphylococcus aureus = experiment: Antimicrobial activity against Staphylococcus aureus MTCC 96 incubated for overnight by broth micro dilution method; type: functional
[6] = test system: Schizosaccharomyces pombe; experiment: Genotoxicity in Schizosaccharomyces pombe Var. Paul Linder 3360 assessed as DNA damage at 2 to 10 ug/ml after 17 to 18 hrs by agarose gel electrophoresis analysis
Plasmodium falciparum = experiment: Antimalarial activity against Plasmodium falciparum ring stage forms after 48 hrs; type: functional
[7] = Cytotoxicity against Schizosaccharomyces pombe Var. Paul Linder 3360 assessed as cell viability at 6 ug/ml after 16 to 18 hrs by trypan blue staining-based compound microscopic analysis (reference value: 93.67 +/- 1.53%); conditions: Schizosaccharomyces pombe Var. Paul Linder 3360 cells, read-out: Activity
Dihydrofolate reductase = molecular target: T1, Dihydrofolate reductase (Bos taurus, UniProt P00376); experiment: Inhibition of bovine liver DHFR pre-incubated 2 mins before dihydrofolic acid substrate addition and measured over 10 mins in presence of NADPH
T1 sequence (P00376 whole entry): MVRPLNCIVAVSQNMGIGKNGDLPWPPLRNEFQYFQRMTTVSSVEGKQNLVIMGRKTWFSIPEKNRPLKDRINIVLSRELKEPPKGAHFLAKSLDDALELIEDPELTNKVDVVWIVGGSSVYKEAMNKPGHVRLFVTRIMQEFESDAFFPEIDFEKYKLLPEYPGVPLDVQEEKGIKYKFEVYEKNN

Aspergillus clavatus [8] = conditions: MTCC 1323

Compound	MIC99 (Candida albicans)	MIC99 (Pseudomonas aeruginosa) [µM]	MIC99 (Aspergillus clavatus [1]) [µM]	MIC99 (Escherichia coli) [µM]	viability at 10 ug/ml [2] [%]	MIC99 (Streptococcus pyogenes) [µM]	viability at 2 ug/ml [3] [%]	viability at 4 ug/ml [4] [%]	viability at 8 ug/ml [5] [%]	MIC99 (Staphylococcus aureus) [µM]	Activity [6]	IC50 (Plasmodium falciparum) [nM]	viability at 6 ug/ml [7] [%]	IC50 (Dihydrofolate reductase) [nM]	MIC99 (Aspergillus clavatus [8])
Nc1ccc(-c2nnc(S)o2)cc1	2590 µM (≈ 500 µg/mL)	1300 (≈ 250 µg/mL)	1300 (≈ 250 µg/mL)	518 (≈ 100 µg/mL)	68.3	518 (≈ 100 µg/mL)	87.3	83	71	324 (≈ 62.6 µg/mL)	Toxic	810	76	–	–
O=[N+]([O-])c1cccc(/C=N/c2ccc(-c3nnc(S)n3/N=C/c3cccc([N+](=O)[O-])c3)cc2)c1	1060 µM (≈ 500 µg/mL)	528 (≈ 250 µg/mL)	2110 (≈ 1000 µg/mL)	423 (≈ 200 µg/mL)	59.7	132 (≈ 62.5 µg/mL)	87	80	65.3	264 (≈ 125 µg/mL)	Toxic	245	73.7	25.9	–
COC1=CC(=O)C[C@@H](C)[C@]12Oc1c(Cl)c(OC)cc(OC)c1C2=O [GRISEOFULVIN]	1420 µM (≈ 501 µg/mL)	–	284 (≈ 100 µg/mL)	–	–	–	–	–	–	–	–	–	–	–	–
CC1(C)S[C@@H]2[C@H](NC(=O)[C@H](N)c3ccccc3)C(=O)N2[C@H]1C(=O)O [AMPICILLIN]	–	286 (≈ 99.9 µg/mL)	–	286 (≈ 99.9 µg/mL)	–	286 (≈ 99.9 µg/mL)	–	–	–	716 (≈ 250 µg/mL)	–	–	–	–	–
Sc1nnc(-c2ccc(/N=C/c3ccc(Cl)cc3)cc2)n1/N=C/c1ccc(Cl)cc1	inactive	222 (≈ 100 µg/mL)	–	554 (≈ 251 µg/mL)	47	222 (≈ 100 µg/mL)	83.3	72.3	55.7	554 (≈ 251 µg/mL)	Toxic	230	62.3	34.9	inactive
Sc1nnc(-c2ccc(/N=C/c3ccc(Cl)cc3)cc2)o1	inactive	397 (≈ 125 µg/mL)	–	635 (≈ 201 µg/mL)	47	397 (≈ 125 µg/mL)	81.3	73.3	54.7	794 (≈ 251 µg/mL)	Toxic	301	64.7	45	inactive
CCN(CC)CCCC(C)Nc1ccnc2cc(Cl)ccc12 (configuration not stated) [CHLOROQUINE]	–	–	–	–	–	–	–	–	–	–	–	–	–	30.1	–
Oc1ccc(/C=N/c2ccc(-c3nnc(S)o3)cc2)cc1	inactive	842 (≈ 250 µg/mL)	–	421 (≈ 125 µg/mL)	45.3	673 (≈ 200 µg/mL)	82.3	78.3	67	673 (≈ 200 µg/mL)	Toxic	822	72	–	inactive
Sc1nnc(-c2ccc(/N=C/c3cccs3)cc2)n1/N=C/c1cccs1	2530 µM (≈ 1000 µg/mL)	633 (≈ 250 µg/mL)	–	316 (≈ 125 µg/mL)	63.3	506 (≈ 200 µg/mL)	87.7	82	70.7	633 (≈ 250 µg/mL)	Toxic	815	75.3	–	inactive
COc1ccc(/C=N/c2ccc(-c3nnc(S)n3/N=C/c3ccc(OC)cc3)cc2)cc1	1130 µM (≈ 500 µg/mL)	564 (≈ 250 µg/mL)	1130 (≈ 500 µg/mL)	282 (≈ 125 µg/mL)	38.7	226 (≈ 100 µg/mL)	79	64.3	52.7	564 (≈ 250 µg/mL)	Toxic	835	59	–	–
CCn1cc(C(=O)O)c(=O)c2cc(F)c(N3CCNCC3)cc21 [NORFLOXACIN]	–	31 (≈ 9.9 µg/mL)	–	31 (≈ 9.9 µg/mL)	–	31 (≈ 9.9 µg/mL)	–	–	–	31 (≈ 9.9 µg/mL)	–	–	–	–	–
NYSTATIN	108 µM	–	–	–	–	–	–	–	–	–	–	–	–	–	108 µM
O=C(N[C@H](CO)[C@H](O)c1ccc([N+](=O)[O-])cc1)C(Cl)Cl [CHLORAMPHENICOL]	–	155 (≈ 50.1 µg/mL)	–	155 (≈ 50.1 µg/mL)	–	155 (≈ 50.1 µg/mL)	–	–	–	155 (≈ 50.1 µg/mL)	–	–	–	–	–
Sc1nnc(-c2ccc(/N=C/c3cccs3)cc2)o1	inactive	871 (≈ 250 µg/mL)	–	436 (≈ 125 µg/mL)	52.7	348 (≈ 100 µg/mL)	74.3	70.7	61	697 (≈ 200 µg/mL)	Toxic	802	66.3	–	inactive
O=C(O)c1cn(C2CC2)c2cc(N3CCNCC3)c(F)cc2c1=O [CIPROFLOXACIN]	–	75 (≈ 24.9 µg/mL)	–	75 (≈ 24.9 µg/mL)	–	151 (≈ 50 µg/mL)	–	–	–	151 (≈ 50 µg/mL)	–	–	–	–	–
Oc1ccc(/C=N/c2ccc(-c3nnc(S)n3/N=C/c3ccc(O)cc3)cc2)cc1	inactive	602 (≈ 250 µg/mL)	–	241 (≈ 100 µg/mL)	72.3	482 (≈ 200 µg/mL)	84.7	79.7	77	602 (≈ 250 µg/mL)	Toxic	282	78.7	49.5	inactive
CCc1nc(N)nc(N)c1-c1ccc(Cl)cc1 [PYRIMETHAMINE]	–	–	–	–	–	–	–	–	–	–	–	1000	–	–	–
O=[N+]([O-])c1cccc(/C=N/c2ccc(-c3nnc(S)o3)cc2)c1	1530 µM (≈ 501 µg/mL)	613 (≈ 200 µg/mL)	1530 (≈ 501 µg/mL)	613 (≈ 200 µg/mL)	46.3	307 (≈ 100 µg/mL)	78.3	74.3	56.7	383 (≈ 125 µg/mL)	Toxic	806	65.7	–	–
COc1ccc(/C=N/c2ccc(-c3nnc(S)o3)cc2)cc1	3220 µM (≈ 1000 µg/mL)	402 (≈ 125 µg/mL)	1610 (≈ 500 µg/mL)	643 (≈ 200 µg/mL)	49	804 (≈ 250 µg/mL)	80.3	72.3	63.7	804 (≈ 250 µg/mL)	Toxic	790	68	–	–
Nc1ccc(-c2nnc(S)n2N)cc1	4830 µM (≈ 1000 µg/mL)	966 (≈ 200 µg/mL)	2420 (≈ 501 µg/mL)	1210 (≈ 250 µg/mL)	67	1210 (≈ 250 µg/mL)	91.3	85.7	75.7	1210 (≈ 250 µg/mL)	Toxic	960	82	–	–

From ChEMBL document CHEMBL4052693, “1,2,4-Triazole and 1,3,4-oxadiazole analogues: Synthesis, MO studies, in silico molecular docking studies, antimalarial as DHFR inhibitor and antimicrobial activities” (Bioorg Med Chem, 2017)
